The record followed here is ChEMBL document CHEMBL5576070, “The recent discovery of a promising pharmacological scaffold derived from carvacrol: A review” (Bioorg Med Chem Lett, 2024).

In brackets after ≈: the same amount, converted by molar mass.

Assay [1] relates to Salmonella typhimurium. Description: Antibacterial activity against Salmonella typhimurium DT104 assessed as inhibition of bacterial growth incubated for 18 hrs by CLSI protocol based microbroth dilution method. Particulars: Salmonella enterica. Format: functional, Salmonella enterica subsp. enterica serovar Typhimurium.
The test system of assay [2] is Clostridium perfringens. Description: Antibacterial activity against Clostridium perfringens assessed as reduction in bacterial growth inhibition. Format: functional.
Assay [3] deals with Escherichia coli. Description: Antibacterial activity against Escherichia coli assessed as reduction in bacterial growth inhibition. Format: functional.
In assay [4] the test system is Salmonella enteritidis. Description: Antibacterial activity against Salmonella enterica subsp. enterica serovar Enteritidis assessed as reduction in bacterial growth inhibition. Format: functional.
For assay [5], the system named is Salmonella typhimurium. As to the kind of experiment: Antibacterial activity against Salmonella typhimurium DT104 assessed as reduction in bacterial growth inhibition. Format: functional, Salmonella enterica subsp. enterica serovar Typhimurium.
In assay [6] the test system is Clostridium perfringens. As to the kind of experiment: Antibacterial activity against Clostridium perfringens assessed as bacterial growth inhibition after 24 hrs by microdilution method. Format: functional.
Assay [7] has as its system MIA PaCa-2. As to the kind of experiment: Growth inhibition of human MIA PaCa-2 cells measured for 48 hrs by SRB assay. Format: functional.
Assay [8] relates to Staphylococcus epidermidis. As to the kind of experiment: Antimicrobial activity against Staphylococcus epidermidis ATCC 12228 assessed as reduction in bacterial growth incubated for 24 hrs by Mueller-Hinton agar based analysis. Format: functional.
Assay [9] has as its system Pseudomonas aeruginosa. Description: Antibacterial activity against Pseudomonas aeruginosa ATCC 15442 assessed as reduction in bacterial growth incubated for 24 hrs by Mueller-Hinton agar based analysis. Format: functional.
The test system of assay [10] is Staphylococcus aureus. Description: Antimicrobial activity against Staphylococcus aureus […] assessed as reduction in bacterial growth incubated for 24 hrs by Mueller-Hinton agar based analysis. It counts as functional.
The subject of assay [11] is Escherichia coli. As to the kind of experiment: Antibacterial activity against Escherichia coli assessed as reduction in bacterial growth incubated for 24 hrs by Mueller-Hinton agar based analysis. It counts as functional.
The subject of assay [12] is Escherichia coli. As to the kind of experiment: microbe, parasite or virus in culture. Particulars: ATCC 25922, 24 h.
In assay [13] the target is T1, Acetylcholinesterase (Homo sapiens, UniProt P22303). As to the kind of experiment: Inhibition of AChE (unknown origin).
Assay [14] addresses Cholinesterase (Homo sapiens, UniProt P06276). As to the kind of experiment: Inhibition of human BChE using butyrylthiocholine iodide as substrate incubated for 15 mins by spectrophotometric Ellman's method.
A short description of assay [15]: Antioxidant activity assessed as DPPH radical scavenging activity incubated for 20 mins by spectrophotometric method. It counts as functional.
Assay [16] addresses T1, Acetylcholinesterase. As to the kind of experiment: Inhibition of AChE (unknown origin) using acetylthiocholine iodide as substrate by Ellman's method.
Assay [17] addresses Mushroom tyrosinase (Agaricus bisporus, UniProt O42713+Q00024+C7FF04+C7FF05). Description: Inhibition of mushroom tyrosinase using L-DOPA as substrate by spectrophotometric analysis. Format: protein assay.
The test system of assay [18] is Helicobacter pylori. Description: Antibacterial activity against Helicobacter pylori assessed as reduction in bacterial growth incubated for 24 hrs by broth micro-dilution method. Format: functional.
Assay [19] deals with Staphylococcus aureus. Description: Antibacterial activity against Staphylococcus aureus ATCC 25923 assessed as zone of inhibition by agar diffusion method. It counts as functional.
The test system of assay [20] is Proteus vulgaris. As to the kind of experiment: Antimicrobial activity against Proteus vulgaris NCIM 2813 assessed as zone of inhibition incubated for 24 hrs by agar diffusion method. Format: functional.
The test system of assay [21] is Bacillus subtilis. As to the kind of experiment: Antibacterial activity against Bacillus subtilis assessed as zone of inhibition. Format: functional.

T1 sequence (P22303 whole entry): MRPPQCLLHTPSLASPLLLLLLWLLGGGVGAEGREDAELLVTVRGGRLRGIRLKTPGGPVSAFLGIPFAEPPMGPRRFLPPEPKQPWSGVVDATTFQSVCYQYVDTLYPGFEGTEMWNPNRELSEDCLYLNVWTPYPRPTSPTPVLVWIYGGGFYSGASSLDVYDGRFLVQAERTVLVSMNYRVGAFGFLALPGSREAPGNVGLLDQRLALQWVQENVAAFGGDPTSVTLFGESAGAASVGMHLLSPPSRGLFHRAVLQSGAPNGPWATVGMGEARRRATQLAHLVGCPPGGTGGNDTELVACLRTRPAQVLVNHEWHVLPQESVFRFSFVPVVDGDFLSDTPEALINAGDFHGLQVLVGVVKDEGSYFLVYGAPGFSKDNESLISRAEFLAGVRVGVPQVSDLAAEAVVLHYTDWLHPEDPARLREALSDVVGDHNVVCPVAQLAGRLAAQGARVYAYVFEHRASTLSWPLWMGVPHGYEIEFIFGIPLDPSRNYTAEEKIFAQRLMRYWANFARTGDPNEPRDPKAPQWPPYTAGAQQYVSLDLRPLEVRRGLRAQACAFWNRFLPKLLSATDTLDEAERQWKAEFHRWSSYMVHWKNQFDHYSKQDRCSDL
Cholinesterase, sequence (P06276 whole entry): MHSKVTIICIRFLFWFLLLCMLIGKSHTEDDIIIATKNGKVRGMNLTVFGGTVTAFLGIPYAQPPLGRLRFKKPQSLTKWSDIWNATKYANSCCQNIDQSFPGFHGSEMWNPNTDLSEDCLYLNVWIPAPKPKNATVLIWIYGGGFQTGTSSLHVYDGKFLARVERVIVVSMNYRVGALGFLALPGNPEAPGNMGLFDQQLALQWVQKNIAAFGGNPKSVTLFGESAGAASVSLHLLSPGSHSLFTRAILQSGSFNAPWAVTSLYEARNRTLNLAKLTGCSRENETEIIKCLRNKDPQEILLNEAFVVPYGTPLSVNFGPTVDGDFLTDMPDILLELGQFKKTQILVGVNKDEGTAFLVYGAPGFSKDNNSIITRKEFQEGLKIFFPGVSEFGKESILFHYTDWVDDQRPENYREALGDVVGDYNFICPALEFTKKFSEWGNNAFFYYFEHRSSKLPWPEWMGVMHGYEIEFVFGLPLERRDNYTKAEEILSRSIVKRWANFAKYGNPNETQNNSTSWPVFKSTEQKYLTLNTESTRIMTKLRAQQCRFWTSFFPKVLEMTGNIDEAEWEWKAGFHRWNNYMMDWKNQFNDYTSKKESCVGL

As to `CCOc1cc(C(C)C)ccc1C`, the MIC in assay [1] was determined as 0.2 µg/mL (≈ 1.12 µM).

For the compound `Cc1cc(S(=O)(=O)O)c(C(C)C)cc1O`, the MIC turned out to be 0.37 %v/v in [2], 0.75 %v/v in assay [3], 0.37 %v/v in assay [4] and 0.75 %v/v in assay [5].

Take `Cc1ccc(C(C)C)cc1OC(=O)Cn1c([N+](=O)[O-])cnc1C`: the MIC in assay [6] was found to be 2.7 µg/mL (≈ 8.51 µM).

`Cc1ccc(C(C)C)c(/C=N/c2c(C(C)C)ccc(C)c2O)c1O` came in with a GI50 in [7] of 16.9 µg/mL (≈ 51.9 µM).

As for `C#CCSC[C@H](NC(C)=O)C(=O)Oc1cc(C(C)C)ccc1C`, the MIC is 5 µg/mL (≈ 15 µM) in assay [8], 10 µg/mL (≈ 30 µM) in assay [9], 10 µg/mL (≈ 30 µM) in assay [10] and 10 µg/mL (≈ 30 µM) in assay [11].

Turning to `Cc1ccc(C(C)C)cc1OC(=O)CC(C)C`, in assay [12], the MIC was 11.7 µg/mL (≈ 49.9 µM).

For the compound `CNC(=O)COc1cc(C(C)C)ccc1C`, the results for the IC50 in assay [13] and in assay [14] were 1930 nM and 50 nM, respectively.

For the compound `Cc1cc(S(=O)(=O)[O-])c(C(C)C)cc1O.[K+]`, the MIC in assay [2] worked out at 0.37 %v/v; in [3], 5 %v/v; in assay [4] it was 1.25 %v/v; in [5] it was 1.25 %v/v.

Turning to `Cc1cc(CO)c(C(C)C)cc1O`, the IC50 in assay [15] came out at 156 µg/mL (≈ 865 µM).

In the case of `CSC[C@H](NC(C)=O)C(=O)Oc1cc(C(C)C)ccc1C`, the MIC was determined as 2.5 µg/mL (≈ 8.08 µM) in assay [8], 10 µg/mL (≈ 32.3 µM) in assay [9], 10 µg/mL (≈ 32.3 µM) in assay [10] and 10 µg/mL (≈ 32.3 µM) in [11].

On to `Cc1ccc(C(C)C)cc1OCC(O)CNC(C)(C)C` (stereo unspecified), for which, in assay [16], the IC50 is 136 nM.

Turning to `CC(=O)N[C@@H](CS)C(=O)Oc1cc(C(C)C)ccc1C`, the MIC in [8] came out at 5 µg/mL (≈ 16.9 µM); in [9], 10 µg/mL (≈ 33.9 µM); in assay [10], 10 µg/mL (≈ 33.9 µM); in assay [11] it was 10 µg/mL (≈ 33.9 µM).

Consider `Cc1ccc(C(C)C)cc1OC(=O)COC(=O)/C=C/c1ccccc1`, for which the IC50 in assay [17] was found to be 7700 nM.

For `Cc1ccc(C(C)C)cc1OCC(=O)NC1CCCCC1`, the IC50 in assay [13] came to 1930 nM; in [14], 50 nM.

With `C=CCSC[C@H](NC(C)=O)C(=O)Oc1cc(C(C)C)ccc1C`, the MIC stood at 2.5 µg/mL (≈ 7.45 µM) in [8], 5 µg/mL (≈ 14.9 µM) in assay [9], 2.5 µg/mL (≈ 7.45 µM) in assay [10] and 2.5 µg/mL (≈ 7.45 µM) in assay [11].

Regarding `Cc1ccc(C(C)C)cc1OC(=O)C(C)C`, in [12], the MIC was found to be 11.7 µg/mL (≈ 53.1 µM).

For `Cc1ccc(C(C)C)cc1OC(=O)CCCC[C@@H]1CCSS1`, the MIC in assay [8] turned out to be 10 µg/mL (≈ 29.5 µM); in assay [9] it was 5 µg/mL (≈ 14.8 µM); in assay [10] it was 10 µg/mL (≈ 29.5 µM); in assay [11] it was 5 µg/mL (≈ 14.8 µM).

Regarding `CCC(=O)Oc1cc(C(C)C)ccc1C`, the MIC in [12] stood at 11.7 µg/mL (≈ 56.7 µM).

For the compound `Cc1ccc(C(C)C)cc1OCc1ccc(S(C)(=O)=O)cc1`, the MIC in assay [18] was determined as 2 µg/mL (≈ 6.28 µM).

Compound `Cc1ccc(C(C)C)cc1OC(=O)COC(=O)/C=C/c1ccc(O)cc1` registered an IC50 in assay [17] of 6500 nM.

The compound `Cc1ccc(C(C)C)cc1OC(=O)COC(=O)c1ccc(O)c(O)c1` gave an IC50 in assay [17] of 15900 nM.

`Cc1ccc(C(C)C)cc1OC(=O)COC(=O)/C=C/c1ccc(Cl)cc1` gave an IC50 in [17] of 6700 nM.

`CCCNC(=O)COc1cc(C(C)C)ccc1C`: the results for the IC50 in assay [13] and in assay [14] were 1930 nM and 50 nM, respectively.

Take `Cc1ccc(C(C)C)cc1OC(=O)[C@@H]1CSCN1C(=O)C(F)(F)F`: the MIC stood at 2.5 µg/mL (≈ 6.92 µM) in [8], 10 µg/mL (≈ 27.7 µM) in [9], 5 µg/mL (≈ 13.8 µM) in [10] and 5 µg/mL (≈ 13.8 µM) in assay [11].

`Cc1ccc(C(C)C)cc1OCC(=O)N/N=C/c1c(C(C)C)ccc(C)c1O`: in assay [15], the IC50 was found to be 0.16 µg/mL (≈ 0.418 µM).

On to `CSCC[C@H](NC(C)=O)C(=O)Oc1cc(C(C)C)ccc1C`, for which the MIC in [8] was 10 µg/mL (≈ 30.9 µM); in assay [9], 5 µg/mL (≈ 15.5 µM); in assay [10], 10 µg/mL (≈ 30.9 µM); in assay [11], 10 µg/mL (≈ 30.9 µM).

As to `Cc1ccc(C(C)C)cc1OCC(=O)NCCC1=CCCCC1`, the IC50 in assay [13] turned out to be 1930 nM; in assay [14], 50 nM.

In assay [16], `Cc1ccc(C(C)C)cc1OCC(O)CNCCC1=CCCCC1` (stereo unspecified) showed an IC50 of 136 nM.

Consider `CC(=O)Oc1cc(C(C)C)ccc1C`, for which, in [12], the MIC was found to be 11.7 µg/mL (≈ 60.9 µM).

`Cc1ccc(C(C)C)cc1OC(=O)COC(=O)c1ccc(O)cc1` gave an IC50 in assay [17] of 14900 nM.

In the case of `Cc1ccc(C(C)C)cc1OCC(=O)Nc1ccc(Cl)cc1`, the “inhibition zone (IZ)” value in assay [19] is listed as 20 mm; in [20] it was 10 mm; in [21], 18 mm.

Regarding `CCSC[C@H](NC(C)=O)C(=O)Oc1cc(C(C)C)ccc1C`, the MIC in assay [8], in assay [9], in assay [10] and in assay [11] was 10 µg/mL (≈ 30.9 µM) in each case.

Compound `Cc1cc(C)c(S(=O)(=O)N/N=C/c2c(C(C)C)ccc(C)c2O)c(C)c1` had a GI50 in [7] of 10 µg/mL (≈ 26.7 µM).

In the case of `Cc1ccc(C(C)C)cc1OCC(=O)N1Cc2ccccc2C1`, the IC50 amounted to 1930 nM in assay [13] and 50 nM in [14].
